Data reported in ChEMBL document CHEMBL4229455, “Synthesis and anticancer activity of novel bisindolylhydroxymaleimide derivatives with potent GSK-3 kinase inhibition” (Bioorg Med Chem, 2018).

Key:
Type in all cases: functional
HL-60(TB) = experiment: Cytotoxicity against human HL-60(TB) cells assessed as cell growth at 0.01 uM after 48 hrs by SRB assay relative to control; conditions: HL-60, 48 h, read-out: Activity
SNB-19 [1] = experiment: Cytotoxicity against human SNB19 cells assessed as cell growth at 0.01 uM after 48 hrs by SRB assay relative to control; conditions: SNB-19, 48 h, read-out: Activity
MDA-MB-435 [2] = experiment: Cytotoxicity against human MDA-MB-435 cells assessed as cell growth at 0.01 uM after 48 hrs by SRB assay relative to control; conditions: MDA-MB-435, 48 h, read-out: Activity
IGROV-1 [3] = experiment: Cytotoxicity against human IGROV1 cells assessed as cell growth at 0.01 uM after 48 hrs by SRB assay relative to control; conditions: IGROV-1, 48 h, read-out: Activity
PC-3 [4] = experiment: Cytotoxicity against human PC3 cells assessed as cell growth at 0.01 uM after 48 hrs by SRB assay relative to control; conditions: PC-3, 48 h, read-out: Activity
DU-145 = experiment: Cytotoxicity against human DU145 cells assessed as cell growth at 0.01 uM after 48 hrs by SRB assay relative to control; conditions: DU-145, 48 h, read-out: Activity
T47D = experiment: Cytotoxicity against human T47D cells assessed as cell growth at 0.01 uM after 48 hrs by SRB assay relative to control; conditions: read-out: Activity
CCRF-CEM = experiment: Cytotoxicity against human CCRF-CEM cells assessed as cell growth at 0.1 uM after 48 hrs by SRB assay relative to control; conditions: read-out: Activity
SR = experiment: Cytotoxicity against human SR cells assessed as cell growth at 0.1 uM after 48 hrs by SRB assay relative to control; conditions: read-out: Activity
HCT-15 = experiment: Cytotoxicity against human HCT15 cells assessed as cell growth at 0.1 uM after 48 hrs by SRB assay relative to control; conditions: HCT-15, 48 h, read-out: Activity
SNB-19 [5] = experiment: Cytotoxicity against human SNB19 cells assessed as cell growth at 0.1 uM after 48 hrs by SRB assay relative to control; conditions: SNB-19, 48 h, read-out: Activity
NCI/ADR-RES [6] = experiment: Cytotoxicity against human NCI-ADR-RES cells assessed as cell growth at 0.1 uM after 48 hrs by SRB assay relative to control; conditions: read-out: Activity
COLO 205 [7] = experiment: Cytotoxicity against human COLO205 cells assessed as cell growth at 1 uM after 48 hrs by SRB assay relative to control; conditions: COLO 205, 48 h, read-out: Activity
SF-295 = experiment: Cytotoxicity against human SF295 cells assessed as cell growth at 1 uM after 48 hrs by SRB assay relative to control; conditions: SF-295, 48 h, read-out: Activity
SNB-19 [8] = experiment: Cytotoxicity against human SNB19 cells assessed as cell growth at 1 uM after 48 hrs by SRB assay relative to control; conditions: SNB-19, 48 h, read-out: Activity
UACC-62 = experiment: Cytotoxicity against human UACC62 cells assessed as cell growth at 1 uM after 48 hrs by SRB assay relative to control; conditions: UACC-62, 48 h, read-out: Activity
OVCAR-8 = experiment: Cytotoxicity against human OVCAR8 cells assessed as cell growth at 1 uM after 48 hrs by SRB assay relative to control; conditions: OVCAR-8, 48 h, read-out: Activity
NCI/ADR-RES [9] = experiment: Cytotoxicity against human NCI-ADR-RES cells assessed as cell growth at 1 uM after 48 hrs by SRB assay relative to control; conditions: read-out: Activity
PC-3 [10] = experiment: Cytotoxicity against human PC3 cells assessed as cell growth at 1 uM after 48 hrs by SRB assay relative to control; conditions: PC-3, 48 h, read-out: Activity
MOLT-4 = experiment: Cytotoxicity against human MOLT4 cells assessed as cell growth at 100 uM after 48 hrs by SRB assay relative to control; conditions: MOLT-4, 48 h, read-out: Activity
HOP-62 = experiment: Cytotoxicity against human HOP62 cells assessed as cell growth at 100 uM after 48 hrs by SRB assay relative to control; conditions: HOP-62, 48 h, read-out: Activity
HOP-92 = experiment: Cytotoxicity against human HOP92 cells assessed as cell growth at 100 uM after 48 hrs by SRB assay relative to control; conditions: HOP-92, 48 h, read-out: Activity
NCI-H522 [11] = experiment: Cytotoxicity against human NCI-H522 cells assessed as cell growth at 100 uM after 48 hrs by SRB assay relative to control; conditions: NCI-H522, 48 h, read-out: Activity
SW-620 = experiment: Cytotoxicity against human SW620 cells assessed as cell growth at 100 uM after 48 hrs by SRB assay relative to control; conditions: SW-620, 48 h, read-out: Activity
M14 = experiment: Cytotoxicity against human M14 cells assessed as cell growth at 100 uM after 48 hrs by SRB assay relative to control; conditions: M14, 48 h, read-out: Activity
MDA-MB-435 [12] = experiment: Cytotoxicity against human MDA-MB-435 cells assessed as cell growth at 100 uM after 48 hrs by SRB assay relative to control; conditions: MDA-MB-435, 48 h, read-out: Activity
786-0 = experiment: Cytotoxicity against human 786-O cells assessed as cell growth at 100 uM after 48 hrs by SRB assay relative to control; conditions: 786-0, 48 h, read-out: Activity
NCI-H460 = experiment: Cytotoxicity against human NCI-H460 cells after 48 hrs by SRB assay; conditions: NCI-H460, 48 h
NCI-H522 [13] = experiment: Cytotoxicity against human NCI-H522 cells after 48 hrs by SRB assay; conditions: NCI-H522, 48 h
COLO 205 [14] = experiment: Cytotoxicity against human COLO205 cells after 48 hrs by SRB assay; conditions: COLO 205, 48 h
SF-539 = experiment: Cytotoxicity against human SF539 cells after 48 hrs by SRB assay; conditions: SF-539, 48 h
SNB-75 = experiment: Cytotoxicity against human SNB75 cells after 48 hrs by SRB assay; conditions: SNB-75, 48 h; for CC50: read-out: LC50 (the source's name)
SK-MEL-2 = experiment: Cytotoxicity against human SK-MEL-2 cells after 48 hrs by SRB assay; conditions: SK-MEL-2, 48 h
SK-MEL-5 = experiment: Cytotoxicity against human SK-MEL-5 cells after 48 hrs by SRB assay; conditions: SK-MEL-5, 48 h; for CC50: read-out: LC50 (the source's name)
IGROV-1 [15] = experiment: Cytotoxicity against human IGROV1 cells after 48 hrs by SRB assay; conditions: IGROV-1, 48 h
RXF 393 = experiment: Cytotoxicity against human RXF393 cells after 48 hrs by SRB assay; conditions: RXF 393, 48 h

## Cn1cc(C2=C(c3cn(C)c4ncccc34)C(=O)NC2=O)c2ccccc21
HL-60(TB)
  growth at 0.01 µM: 106%
SNB-19 [1]
  growth at 0.01 µM: 92%
MDA-MB-435 [2]
  growth at 0.01 µM: 98%
IGROV-1 [3]
  growth at 0.01 µM: 98%
PC-3 [4]
  growth at 0.01 µM: 99%
DU-145
  growth at 0.01 µM: 107%
T47D
  growth at 0.01 µM: 89%
CCRF-CEM
  growth at 0.1 µM: 81%
SR
  growth at 0.1 µM: 88%
HCT-15
  growth at 0.1 µM: 103%
SNB-19 [5]
  growth at 0.1 µM: 91%
NCI/ADR-RES [6]
  growth at 0.1 µM: 96%
COLO 205 [7]
  growth at 1 µM: 83%
SF-295
  growth at 1 µM: 85%
SNB-19 [8]
  growth at 1 µM: 91%
UACC-62
  growth at 1 µM: 89%
OVCAR-8
  growth at 1 µM: 95%
NCI/ADR-RES [9]
  growth at 1 µM: 91%
PC-3 [10]
  growth at 1 µM: 86%
MOLT-4
  growth at 100 µM: -24%
HOP-62
  growth at 100 µM: -17%
HOP-92
  growth at 100 µM: -21%
NCI-H522 [11]
  growth at 100 µM: -30%
SW-620
  growth at 100 µM: -19%
M14
  growth at 100 µM: -67%
MDA-MB-435 [12]
  growth at 100 µM: -35%
786-0
  growth at 100 µM: -19%
NCI-H460
  GI50: 3.8 µM
  TGI: 22 µM
NCI-H522 [13]
  GI50: 5.05 µM
  TGI: 32.4 µM
COLO 205 [14]
  GI50: 1.69 µM
  TGI: 3.71 µM
SF-539
  GI50: 2.09 µM
  TGI: 5.85 µM
SNB-75
  GI50: 0.291 µM
  TGI: 7.97 µM
  CC50: 94.6 µM
SK-MEL-2
  GI50: 3.2 µM
  TGI: 8.28 µM
SK-MEL-5
  GI50: 2.15 µM
  TGI: 5.8 µM
  CC50: 21.8 µM
IGROV-1 [15]
  GI50: 4.1 µM
  TGI: 27.5 µM
RXF 393
  GI50: 1.95 µM
  TGI: 5.32 µM

## N#CCCCCCn1cc(C2=C(c3cn(CCCCCC#N)c4ccccc34)C(=O)N(O)C2=O)c2ccccc21
HL-60(TB)
  growth at 0.01 µM: 98%
SNB-19 [1]
  growth at 0.01 µM: 97%
MDA-MB-435 [2]
  growth at 0.01 µM: 95%
IGROV-1 [3]
  growth at 0.01 µM: 104%
PC-3 [4]
  growth at 0.01 µM: 93%
DU-145
  growth at 0.01 µM: 101%
T47D
  growth at 0.01 µM: 99%
CCRF-CEM
  growth at 0.1 µM: 85%
SR
  growth at 0.1 µM: 100%
HCT-15
  growth at 0.1 µM: 93%
SNB-19 [5]
  growth at 0.1 µM: 95%
NCI/ADR-RES [6]
  growth at 0.1 µM: 92%
COLO 205 [7]
  growth at 1 µM: 97%
SF-295
  growth at 1 µM: 96%
SNB-19 [8]
  growth at 1 µM: 91%
UACC-62
  growth at 1 µM: 87%
OVCAR-8
  growth at 1 µM: 95%
NCI/ADR-RES [9]
  growth at 1 µM: 102%
PC-3 [10]
  growth at 1 µM: 80%
MOLT-4
  growth at 100 µM: 2%
HOP-62
  growth at 100 µM: 4%
HOP-92
  growth at 100 µM: 11%
NCI-H522 [11]
  growth at 100 µM: -30%
SW-620
  growth at 100 µM: 7%
M14
  growth at 100 µM: -25%
MDA-MB-435 [12]
  growth at 100 µM: -27%
786-0
  growth at 100 µM: 6%
NCI-H460
  GI50: 5.05 µM
  LC50: > 100 µM
  TGI: 33 µM
NCI-H522 [13]
  GI50: 2.59 µM
  LC50: > 100 µM
  TGI: 10.5 µM
COLO 205 [14]
  GI50: 17.7 µM
  LC50: > 100 µM
  TGI: 58.7 µM
SF-539
  GI50: 2.82 µM
  LC50: > 100 µM
  TGI: 9.42 µM
SNB-75
  GI50: 2.84 µM
  TGI: 20 µM
  CC50: > 100 µM
SK-MEL-2
  GI50: 3.38 µM
  LC50 (concentration killing 50% of cells): > 100 µM
  TGI: 14.9 µM
SK-MEL-5
  GI50: 2.92 µM
  TGI: 10.6 µM
  CC50: 42.8 µM
IGROV-1 [15]
  GI50: 5.08 µM
  LC50 (concentration killing 50% of cells): > 100 µM
  TGI: 70.8 µM
RXF 393
  GI50: 3.15 µM
  LC50: > 100 µM
  TGI: 12.2 µM
